Values joined by “and” are separate entries in the source; they are usually repeats but may differ in a detail not shown here. Equal entries are not always repeated. “Also recorded” adds a separate entry of the source. Where two headings read alike, the source gives them in different places.
How the values were obtained:
DAT = DAT (Macaca fascicularis, UniProt Q9GJT6); conditions: quoted for known ligands; cited from earlier work
[1] = target: serotonin transporter (SERT) (UniProt A7KAX8); assay: Competition binding with [3H]citalopram at the serotonin transporter
Procedure: (§1) The affinities (IC50) of the compounds for the dopamine and serotonin transporters were determined in competition studies using [3H]2β-carbomethoxy-3β-(4-fluorophenyl)-8-methyl-8-azabicyclo[3.2.1]octane ([^3H]WIN 35,428) to label the dopamine transporter and [^3H]citalopram to label the serotonin transporter. Competition studies were conducted with a fixed concentration of radioligand and a range of concentrations of the test compound. […] The cells were then exhaustively washed to remove non-covalently bound ligand and binding of cocaine (20 nM) and dopamine uptake (Vmax) were compared.

[2] = target: T1, human dopamine transporter (Homo sapiens, UniProt Q01959); assay: [3H]cocaine binding in hDAT HEK-293 cells after pre-incubation with compound and washing; conditions: for irreversible binding to the DAT: 24 hour incubation, then washing; for Inhibition of cocaine binding after 24 h (%): 24-h pre-incubation, cells extensively washed, [3H]cocaine 20 nM, HEK-293 hDAT
T1 construct: expressed in transfected cells; host or cells: HEK-293
T1 sequence (Q01959 whole entry): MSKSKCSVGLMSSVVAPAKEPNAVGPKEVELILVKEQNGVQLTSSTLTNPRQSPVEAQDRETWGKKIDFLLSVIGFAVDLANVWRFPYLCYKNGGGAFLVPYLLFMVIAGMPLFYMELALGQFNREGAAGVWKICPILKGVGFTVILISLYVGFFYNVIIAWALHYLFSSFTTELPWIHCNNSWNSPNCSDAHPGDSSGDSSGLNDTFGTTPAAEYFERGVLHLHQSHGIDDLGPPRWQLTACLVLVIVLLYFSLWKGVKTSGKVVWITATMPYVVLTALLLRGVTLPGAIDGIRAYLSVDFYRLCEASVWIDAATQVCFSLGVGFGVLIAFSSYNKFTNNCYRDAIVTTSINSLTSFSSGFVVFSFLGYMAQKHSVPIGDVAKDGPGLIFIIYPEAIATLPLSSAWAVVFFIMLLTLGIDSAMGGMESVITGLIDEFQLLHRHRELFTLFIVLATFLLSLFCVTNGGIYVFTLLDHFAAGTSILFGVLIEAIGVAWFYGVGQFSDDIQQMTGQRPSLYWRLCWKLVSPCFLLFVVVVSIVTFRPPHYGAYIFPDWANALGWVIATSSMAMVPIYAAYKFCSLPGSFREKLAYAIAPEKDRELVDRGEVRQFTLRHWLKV

[3] = target: T2, dopamine transporter (DAT) (UniProt Q9GJT6); assay: Competition binding with [3H]WIN 35,428 at the dopamine transporter
T2 construct: Dopamine transporter IC50 (nM) [3H]WIN 35,428; other: unit not given
Procedure: as §1

[4] = target: T1, human dopamine transporter; assay: [3H]dopamine uptake in hDAT HEK-293 cells after pre-incubation with compound and washing; assay type: cell-based; set-up: Inhibition of DA uptake after 24 h (%) / Inhibition of DA uptake: concentration or dose not given beside the values; conditions: for Inhibition of DA uptake after 24 h (%): 24-h pre-incubation, cells extensively washed, HEK-293 hDAT; for decrease of [3H]dopamine transport / [3H]Dopamine transport % of control: 24 hour pre-incubation
[5] = Table 5, read-out: Serotonin transporter IC50 (nM) [3H]citalopram
[6] = Table 5, read-out: Dopamine transporter IC50 (nM) [3H]WIN 35,428
[7] = unit inferred, read-out: SERT (binding, Table 6)
[8] = unit inferred, read-out: DAT (binding, Table 6)
[9] = 24 hours, concentration not stated (n=4)
[10] = 24 hour pre-incubation, O-1893 (1 uM)
[11] = 24 hour pre-incubation with O-2153

Sequence of DAT (Q9GJT6 whole entry): as the sequence (Q01959 whole entry) above, with V24M, I137V, P194S, S198G, D200N, S201G, S202P counted along it

For `COC(=O)C1C(c2ccc(F)cc2)CC2CCC1N2C` (stereo not drawn) [WIN 35,428, 2β-carbomethoxy-3β-(4-fluorophenyl)-8-methyl-8-azabicyclo[3.2.1]octane, reference compound], the IC50 (DAT) is given as 11 nM, the IC50 [1, 5] is given as 160 nM and the “irreversible binding to the DAT” value [2] is given as “did not bind irreversibly”. It also gave an IC50 [3, 6] of 11 nM.
In the case of `COC(=O)C1C(c2ccc(F)cc2)CC2CCC1N2CCOC(C)=O` (stereo not drawn) [Compound O-1103, 2β-Carbomethoxy-3β-(4-fluorophenyl)-8-(2-acetoxyethyl)-8-azabicyclo[3.2.1]octane], the IC50 ([1]; read-out: SERT (binding, Table 6), unit inferred) is reported as 200 nM, the “Inhibition of DA uptake” value ([4]; Table 6, incub time 24 h) is reported as 0% and the “Inhibition of Cocaine Binding” value ([2]; Table 6, incub time 24 h) is reported as 0%. For the same compound, the IC50 ([3]; read-out: DAT (binding, Table 6), unit inferred) was 20 nM.
For `COC(=O)C1C(c2ccc(F)cc2)CC2CCC1N2CCOC(=O)CCC1CO1` (stereo not drawn) [Compound O-1899, 2β-Carbomethoxy-3β-(4-fluorophenyl)-8-[2-(3-oxiranylpropionyloxy)ethyl]-8-azabicyclo[3.2.1]octane], the IC50 [1, 7] was 230 nM, the “Inhibition of DA uptake” value ([4]; Table 6, incub time 24 h) was 0% and the “Inhibition of DA uptake” value ([4]; Table 6, incub time 48 h) was 20%. For the same compound, the “Inhibition of Cocaine Binding” value ([2]; Table 6, incub time 24 h) was 0%, the “Inhibition of Cocaine Binding” value ([2]; Table 6, incub time 48 h) was 40% and the IC50 [3, 8] was 53 nM.
Compound `C=CCCNC(=O)C1C(c2ccc(F)cc2)CC2CCC1N2C` (centres unmarked) [Compound O-2578] has an IC50 [3, 8] of 800 nM.
With `C=CCCCOCC1C(c2ccc(F)cc2)CC2CCC1N2C` (centres unmarked) [Compound O-2528] the IC50 [3, 8] was 41 nM.
In the case of `CCN1C(=O)C=CC1=O` [N-Ethylmaleimide, N-ethylmaleimide, reference compound], the IC50 [1, 5] is reported as greater than 100000 nM, the “Inhibition of DA uptake after 24 h (%)” value [4] is reported as 35% and the “Inhibition of cocaine binding after 24 h (%)” value [2] is reported as 35%. The “irreversible binding to the DAT” value [2] was “did manifest irreversible binding” and the IC50 ([3]; read-out: Dopamine transporter IC50 (nM) [3H]WIN 35,428, Table 5) was greater than 100000 nM.
`O=C(OCCCN1C(=O)C=CC1=O)C1C(c2ccc(F)cc2)CC2CCC1N2CCN1C(=O)C=CC1=O` (centres unmarked) [Compound O-2335] showed an IC50 [1, 7] of 10000 nM and an IC50 [3, 8] of 300 nM.
With `C=CCCNCC1C(c2ccc(F)cc2)CC2CCC1N2C` (centres unmarked) [Compound O-2583] the IC50 [3, 8] was 500 nM.
In the case of `O=C(OCCN1C(=O)C=CC1=O)C1C(c2ccc(F)cc2)CC2CCC1N2CCN1C(=O)C=CC1=O` (centres unmarked) [Compound O-2315], the IC50 [1, 7] is reported as 14000 nM and the IC50 [3, 8] is reported as 2000 nM.
In the case of `CCCCC(=O)OCC1C2CCC(CC1c1ccc(Cl)c(Cl)c1)O2` (stereo not drawn) [Compound O-2102, Pentanoic acid-[3α-(3,4-dichlorophenyl)-8-oxabicyclo[3.2.1]oct-2β-yl]methyl ester], the IC50 [1, 5] is reported as 917 nM, the “Inhibition of DA uptake after 24 h (%)” value [4] is reported as 0% and the “Inhibition of cocaine binding after 24 h (%)” value [2] is reported as 0%. The IC50 [3, 6] was 71 nM.
For `COC(=O)C1C2CCC(CC1c1ccc(Cl)c(Cl)c1)O2` (stereo not drawn) [2β-carbomethoxy-3α-(3′,4′-dichlorophenyl)-8-oxabicyclo[3.2.1]octane], the IC50 (DAT) is listed as 2.34 nM.
For `C=CCCC(=O)OCC1C2CCC(CC1c1ccc(Cl)c(Cl)c1)O2` (stereo not drawn) [Compound O-1893, pent-4-enoic acid-(3α-(3,4-dichlorophenyl)-8-oxabicyclo[3.2.1]oct-2β-yl)methyl ester], the IC50 [1, 5] was 593 nM, the “Inhibition of DA uptake after 24 h (%)” value [4] was 23% and the “Inhibition of DA uptake after 24 h (%)” value ([4]; listed as 3) was “much reduced; also recorded: no inhibition”. The “Dopamine transport % of control” value ([4]; 1 hour pre-incubation) was 29 % of control and 43 % of control and 27 % of control, the “decrease of [3H]dopamine transport” value ([4]; 1 uM) was 5% and the “decrease of [3H]dopamine transport” value ([4]; higher concentration (5 uM, different cells)) was 23% and 22%. The “[3H]Dopamine transport % of control” value ([4]; O-1893 (1 uM)) was 91 % of control and 98 % of control and 95 % of control, the “[3H]Dopamine transport % of control” value ([4]; O-1893-2 (5 uM, different cells), 5 µM) was 80 % of control and 72 % of control and 81 % of control and 90 % of control and 67 % of control and the “reduction of [3H]dopamine transport” value [4, 9] was “reduced to a lesser extent”. For the same compound, the “transporter affinity for dopamine” value ([4]; initially, within one hour of preincubation (n=3)) was “reduced”, the “Inhibition of cocaine binding after 24 h (%)” value [2] was 63% and the “[3H]cocaine binding % of control” value ([2]; 1 hour pre-incubation) was 12 % of control and 10 % of control and 7 % of control. The “irreversible binding to the DAT” value [2] was “no irreversible binding took place”, the “decline of specific [3H]cocaine binding sites” value ([2]; 24 hour pre-incubation, higher concentration (5 uM, different cells)) was 62% and the “Tot- NS (dpms)” value [2, 10] was 3,154 dpms and 3,853 dpms and 4,913 dpms and 6,331 dpms. The “[3H]cocaine binding % of control” value [2, 10] was 45 % of control and 43 % of control and 42 % of control and 49 % of control, the “reduction of [3H]cocaine binding (CDPM)” value [2, 9] was “more than 50%” and the IC50 [3, 6] was 20 nM.
With `C=CCOC(=O)C1C2CCC(CC1c1ccc(Cl)c(Cl)c1)O2` (centres unmarked) [Compound O-2227] the IC50 [1, 7] was 32 nM, the “Inhibition of DA uptake” value ([4]; Table 6, incub time 1 h) was 0% and the “Inhibition of DA uptake” value ([4]; Table 6, incub time 24 h) was 40%. The “Inhibition of Cocaine Binding” value ([2]; Table 6, incub time 1 h) was 0%, the “Inhibition of Cocaine Binding” value ([2]; Table 6, incub time 24 h) was 55% and the IC50 [3, 8] was 3 nM.
With `CC(C)CC(=O)OCC1C2CCC(CC1c1ccc(Cl)c(Cl)c1)O2` (stereo not drawn) [Compound O-2059, 3-Methylbutanoic acid-[3α-(3,4-dichlorophenyl)-8-oxabicyclo[3.2.1]oct-2β-yl]methyl ester] the IC50 [1, 5] was 515 nM, the “Inhibition of DA uptake after 24 h (%)” value [4] was 60% and the “Inhibition of cocaine binding after 24 h (%)” value [2] was 60%. For the same compound, the IC50 [3, 6] was 75 nM.
In the case of `C=CCCCOCC1C2CCC(CC1c1ccc(Cl)c(Cl)c1)O2` (stereo not drawn) [Compound O-2153, 3α-(3,4-dichlorophenyl)-2β-pent-4-enyloxymethyl-8-oxabicyclo[3.2.1]octane], the IC50 [1, 5] is reported as 755 nM, the “Inhibition of DA uptake after 24 h (%)” value [4] is reported as 40% and the “[3H]Dopamine transport % of control (column head not given, as Table 3)” value [4, 11] is reported as 51 and 54. For the same compound, the “Inhibition of cocaine binding after 24 h (%)” value [2] was 80%, the “irreversible binding to the DAT” value [2] was “bound irreversibly” and the “Tot- NS (dpms) (column head not given, as Table 3)” value [2, 11] was 12,216 and 6,792. For the same compound, the “[3H]cocaine binding % of control (column head not given, as Table 3)” value [2, 11] was 28 and 18 and the IC50 [3, 6] was 58 nM.
`O=C(OCCCN1C(=O)C=CC1=O)C1C(c2ccc(F)cc2)CC2CCC1N2CCCN1C(=O)C=CC1=O` (centres unmarked) [Compound O-2492] gave an IC50 [1, 7] of 2000 nM and an IC50 [3, 8] of 237 nM.
For `C=CCCC(=O)OCC1C(c2ccc(F)cc2)CC2CCC1N2C` (centres unmarked) [Compound O-2517], the IC50 [3, 8] was 60 nM.
For `COCC(=O)OCCCN1C2CCC1C(C(=O)OC)C(c1ccc(F)cc1)C2` (stereo not drawn) [Compound O-1071, 2β-Carbomethoxy-3β-(4-fluorophenyl)-8-(3-methoxyacetoxypropyl)-8-azabicyclo[3 2.1]octane], the IC50 [1, 7] was 3000 nM, the “Inhibition of DA uptake” value ([4]; Table 6, incub time 24 h) was 0% and the “Inhibition of Cocaine Binding” value ([2]; Table 6, incub time 24 h) was 0%. It also gave an IC50 [3, 8] of 125 nM.
In the case of `O=C(CCC1CO1)OCC1C2CCC(CC1c1ccc(Cl)c(Cl)c1)O2` (racemic) [Compound O-1834, 3-Oxiranyl-propionic acid [3α-(3,4-dichlorophenyl)-8-oxabicyclo[3.2.1]oct-3β-yl]methyl ester], the IC50 [1, 5] is reported as 292 nM, the IC50 [1, 7] is reported as 294 nM and the “Inhibition of DA uptake after 24 h (%)” value [4] is reported as 68%. For the same compound, the “Inhibition of DA uptake” value ([4]; Table 6, incub time 24 h) was 68%, the “Inhibition of cocaine binding after 24 h (%)” value [2] was 18% and the “Inhibition of Cocaine Binding” value ([2]; Table 6, incub time 24 h) was 18%. It also gave an IC50 [3, 6] of 17 nM and an IC50 [3, 8] of 17 nM.
In the case of `COC(=O)C1C(c2ccc(F)cc2)CC2CCC1N2CCN1C(=O)C=CC1=O` (stereo not drawn) [Compound O-1233, 2β-Carbomethoxy-3β-(4-fluorophenyl)-8-(2-maleimidoethyl)-8-azabicyclo[3.2.1]octane], the IC50 [1, 7] is reported as 3000 nM, the “Inhibition of Cocaine Binding” value ([2]; Table 6, incub time 1 h) is reported as 50%/1 h and the IC50 [3, 8] is reported as 237 nM.
With `COC(=O)[C@H]1[C@@H](OC(=O)c2ccccc2)C[C@@H]2CC[C@H]1N2C` [(−)-Cocaine, cocaine, reference compound] the IC50 [1, 5] was 270 nM and the IC50 [3, 6] was 95 nM.
In the case of `CCN1C(=O)C=CC1=O` [Compound O-1765], the “Inhibition of DA uptake” value ([4]; Table 6, incub time 24 h) is reported as 35% and the “Inhibition of Cocaine Binding” value ([2]; Table 6, incub time 24 h) is reported as 35%.
